# Laboratory results: patent publication EP0787717A1, “Substituted diaryl dicarboxylic acid diguanidines, process for their preparation, their use as inhibitors of the Na+/H+ exchange as well as medicament or diagnostic agent containing them” (HOECHST AKTIENGESELLSCHAFT, priority 1996, dated 1997)
# Target: T1, Na ^+/H ^+-Exchangers von Kaninchenerythrocyten (Oryctolagus cuniculus, UniProt P23791)
# T1 construct: den Na ^+-Influx in die Erythrocyten via Na ^+/H ^+-Austausch flammenphotometrisch bestimmen zu können; from tissue; host or cells: Erythrocytes in whole blood from the ear arteries of cholesterol-fed New Zealand White rabbits
# T1 sequence (P23791 whole entry): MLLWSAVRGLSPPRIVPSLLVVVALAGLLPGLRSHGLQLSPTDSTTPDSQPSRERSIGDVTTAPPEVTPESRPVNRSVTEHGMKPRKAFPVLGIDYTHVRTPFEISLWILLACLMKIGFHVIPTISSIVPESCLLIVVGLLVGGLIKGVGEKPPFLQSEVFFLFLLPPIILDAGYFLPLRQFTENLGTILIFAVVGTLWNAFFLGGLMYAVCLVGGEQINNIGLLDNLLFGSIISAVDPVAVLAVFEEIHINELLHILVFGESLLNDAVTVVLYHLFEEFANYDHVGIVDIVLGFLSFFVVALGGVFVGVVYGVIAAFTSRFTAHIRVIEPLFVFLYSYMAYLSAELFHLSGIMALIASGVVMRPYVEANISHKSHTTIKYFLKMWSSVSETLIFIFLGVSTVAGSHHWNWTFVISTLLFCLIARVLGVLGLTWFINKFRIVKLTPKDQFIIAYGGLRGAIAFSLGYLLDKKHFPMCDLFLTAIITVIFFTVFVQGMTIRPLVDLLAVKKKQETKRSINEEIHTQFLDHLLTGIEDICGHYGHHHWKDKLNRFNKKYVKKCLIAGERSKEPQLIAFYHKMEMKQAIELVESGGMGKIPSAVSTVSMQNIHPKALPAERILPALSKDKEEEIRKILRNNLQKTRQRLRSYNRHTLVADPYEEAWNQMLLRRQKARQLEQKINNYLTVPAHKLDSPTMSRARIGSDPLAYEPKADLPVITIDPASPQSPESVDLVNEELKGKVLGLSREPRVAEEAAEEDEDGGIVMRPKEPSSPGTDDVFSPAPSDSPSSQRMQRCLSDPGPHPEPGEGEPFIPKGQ
# Experiment: Inhibition of the Na+/H+ exchanger of rabbit erythrocytes (amiloride-sensitive sodium influx, flame photometry)
# Type: cell-based, Kaninchen
# Settings: hyperosmolar salt-sucrose medium, pH 7,4, 37°C, read-out: IC50 Inhibition des Na ^+/H ^+ -Exchangers
# Source text: Inhibition des Na ^+/H ^+-Exchangers von Kaninchenerythrocyten Weiße Neuseeland-Kaninchen (Ivanovas) erhielten eine Standard-Diät mit […] für sechs Wochen, um den Na ^+ /H ^+-Austausch zu aktivieren und so den Na ^+-Influx in die Erythrocyten via Na ^+/H ^+-Austausch flammenphotometrisch bestimmen zu können. Das Blut wurde den Ohrarterien entnommen und durch 25 IE Kalium-Heparin ungerinnbar gemacht. Ein Teil jeder Probe wurde zur Doppelbestimmung des Hämatokrits durch Zentrifugieren benutzt. Aliquots von jeweils 100 µl dienten zur Messung des Na ^+-Ausgangsgehalts der Erythrocyten.
# Um den Amilorid-sensitiven Natrium-Influx zu bestimmen, wurden 100 µl jeder Blutprobe in jeweils 5 ml eines hyperosmolaren Salz-Sucrose-Mediums (mmol/l: 140 NaCl, 3 KCl, 150 Sucrose, 0,1 Ouabain, 20 Tris-hydroxymethylaminomethan) bei pH 7,4 und 37°C inkubiert. Die Erythrocyten wurden danach dreimal mit eiskalter MgCl2-Ouabain-Lösung (mmol/l: 112 MgCl2, 0,1 Ouabain) gewaschen und in 2,0 ml destilliertem Wasser hämolysiert. Der intrazelluläre Natriumgehalt wurde flammenphotometrisch bestimmt.
# Der Na ^+-Nettoinflux wurde aus der Differenz zwischen Natrium-Ausgangswerten und dem Natriumgehalt der Erythrocyten nach Inkubation errechnet. Der Amiloridhemmbare Natrium-Influx ergab sich aus der Differenz des Natriumgehalts der Erythrocyten nach Inkubation mit und ohne Amilorid 3 x 10^-4 mol/l. Auf diese Weise wurde auch bei den erfindungsgemäßen Verbindungen verfahren.
row,Compound,IC50 [µM]
1,"NC(N)=NC(=O)c1ccc(-c2ccccc2C(=O)N=C(N)N)cc1 [Beispiel 2, 2-(4-Guanidinocarbonyl)phenyl-benzoylguanidin]",5
2,"NC(N)=NC(=O)c1ccc(S(=O)(=O)NC(=O)Nc2cccc(C(=O)N=C(N)N)c2)cc1 [Beispiel 5, 4[3-(Guanidinocarbonyl)phenylaminocarbonylaminosulfonyl]-benzoylguanidin]",10
3,"NC(N)=NC(=O)c1ccc(-c2ccc(C(=O)N=C(N)N)cc2)cc1 [Beispiel 4, Biphenyl-4,4'-dicarbonsäure-diguanidid]",2

# The next lines start with the values.
row,IC50 [µM],Compound
1,1.5,"NC(N)=NC(=O)c1ccc(-c2cccc(C(=O)N=C(N)N)c2)cc1 [Beispiel 1, 3-(4-Guanidinocarbonyl)phenyl-benzoylguanidin]"
2,1.5,4-(4-Guanidinocarbonyl)phenylsulfamoyl-benzoylguanidin [Beispiel 3]
